Results: patent US20230079819A1, “COMPOUNDS AND USES THEREOF” (Foghorn Therapeutics Inc., priority 2019, published 2023)
Read-outs that look alike come from different tables or passages of the source.

How the values were obtained:
[1] = tested on: uveal melanoma cell lines 92-1 or MP41; test: Growth inhibition of uveal melanoma cell lines, compound 67 compared with clinical PKC and MEK inhibitors, 3 days, Cell-titer glo; assay type: cell-based; settings: vs LXS196 and Selumetinib
[2] = tested on: uveal melanoma cell lines (92-1, MP41, MP38, MP46); test: Growth of uveal melanoma cell lines with compound 67, 3 days, Cell-titer glo; assay type: cell-based; settings: 0 to 10 micromolar
BRG-1 = target: T1, BRG-1 (Homo sapiens, UniProt P51532); test: ATPase catalytic activity of BRG-1, ADP-Glo in vitro biochemical assay; settings: 30 nM BRG-1, 400 μM ATP, read-out: BRG1 IP50
T1 construct: made in house; host or cells: High Five insect cells
T1 sequence (P51532 whole entry): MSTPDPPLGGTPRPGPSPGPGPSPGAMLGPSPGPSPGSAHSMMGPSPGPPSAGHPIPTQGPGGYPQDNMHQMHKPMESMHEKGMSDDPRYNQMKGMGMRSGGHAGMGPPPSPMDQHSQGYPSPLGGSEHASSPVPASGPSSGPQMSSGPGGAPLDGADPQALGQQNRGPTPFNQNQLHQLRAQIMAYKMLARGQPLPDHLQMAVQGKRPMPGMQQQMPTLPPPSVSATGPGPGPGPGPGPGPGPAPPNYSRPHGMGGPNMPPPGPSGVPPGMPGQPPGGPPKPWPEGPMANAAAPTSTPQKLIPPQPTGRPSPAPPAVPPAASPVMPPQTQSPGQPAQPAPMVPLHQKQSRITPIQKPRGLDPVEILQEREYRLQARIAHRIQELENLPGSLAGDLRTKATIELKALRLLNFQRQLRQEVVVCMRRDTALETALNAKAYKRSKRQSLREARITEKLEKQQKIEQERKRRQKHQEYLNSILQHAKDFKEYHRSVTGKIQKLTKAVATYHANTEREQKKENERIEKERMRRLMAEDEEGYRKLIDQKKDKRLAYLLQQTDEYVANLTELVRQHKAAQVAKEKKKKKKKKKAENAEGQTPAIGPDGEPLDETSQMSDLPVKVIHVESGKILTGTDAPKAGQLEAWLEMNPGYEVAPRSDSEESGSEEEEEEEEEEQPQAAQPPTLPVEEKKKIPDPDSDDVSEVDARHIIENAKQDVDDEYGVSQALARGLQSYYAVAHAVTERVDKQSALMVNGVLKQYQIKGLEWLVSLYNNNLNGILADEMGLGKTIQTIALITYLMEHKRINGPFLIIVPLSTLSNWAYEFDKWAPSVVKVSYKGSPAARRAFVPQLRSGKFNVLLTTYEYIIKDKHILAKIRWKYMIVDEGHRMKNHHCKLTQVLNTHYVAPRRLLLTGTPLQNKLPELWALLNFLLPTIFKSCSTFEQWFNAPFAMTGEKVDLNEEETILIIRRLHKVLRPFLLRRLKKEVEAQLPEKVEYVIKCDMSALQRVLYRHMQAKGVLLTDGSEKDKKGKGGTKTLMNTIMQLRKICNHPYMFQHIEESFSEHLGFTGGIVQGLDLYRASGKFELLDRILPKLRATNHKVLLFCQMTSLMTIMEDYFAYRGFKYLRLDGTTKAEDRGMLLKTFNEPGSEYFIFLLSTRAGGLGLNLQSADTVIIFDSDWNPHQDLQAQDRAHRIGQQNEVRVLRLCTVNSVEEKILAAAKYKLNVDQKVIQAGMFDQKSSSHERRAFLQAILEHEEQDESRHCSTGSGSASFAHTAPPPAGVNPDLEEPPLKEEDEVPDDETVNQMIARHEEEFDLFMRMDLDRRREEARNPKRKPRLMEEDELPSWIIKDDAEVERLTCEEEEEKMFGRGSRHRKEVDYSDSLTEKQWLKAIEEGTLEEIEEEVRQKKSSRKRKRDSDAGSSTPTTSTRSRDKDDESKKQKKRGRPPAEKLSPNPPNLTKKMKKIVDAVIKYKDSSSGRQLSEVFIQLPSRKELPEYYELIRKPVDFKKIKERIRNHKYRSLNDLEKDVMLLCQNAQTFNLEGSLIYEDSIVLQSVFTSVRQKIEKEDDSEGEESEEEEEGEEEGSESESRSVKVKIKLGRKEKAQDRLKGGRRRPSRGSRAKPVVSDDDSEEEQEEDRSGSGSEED

BRM = target: T2, BRM (Homo sapiens, UniProt P51531); test: ATPase catalytic activity of BRM, ADP-Glo in vitro biochemical assay; settings: 30 nM BRM, 400 μM ATP, read-out: BRM IP50
T2 construct: made in house; host or cells: High Five insect cells
T2 sequence (P51531 whole entry): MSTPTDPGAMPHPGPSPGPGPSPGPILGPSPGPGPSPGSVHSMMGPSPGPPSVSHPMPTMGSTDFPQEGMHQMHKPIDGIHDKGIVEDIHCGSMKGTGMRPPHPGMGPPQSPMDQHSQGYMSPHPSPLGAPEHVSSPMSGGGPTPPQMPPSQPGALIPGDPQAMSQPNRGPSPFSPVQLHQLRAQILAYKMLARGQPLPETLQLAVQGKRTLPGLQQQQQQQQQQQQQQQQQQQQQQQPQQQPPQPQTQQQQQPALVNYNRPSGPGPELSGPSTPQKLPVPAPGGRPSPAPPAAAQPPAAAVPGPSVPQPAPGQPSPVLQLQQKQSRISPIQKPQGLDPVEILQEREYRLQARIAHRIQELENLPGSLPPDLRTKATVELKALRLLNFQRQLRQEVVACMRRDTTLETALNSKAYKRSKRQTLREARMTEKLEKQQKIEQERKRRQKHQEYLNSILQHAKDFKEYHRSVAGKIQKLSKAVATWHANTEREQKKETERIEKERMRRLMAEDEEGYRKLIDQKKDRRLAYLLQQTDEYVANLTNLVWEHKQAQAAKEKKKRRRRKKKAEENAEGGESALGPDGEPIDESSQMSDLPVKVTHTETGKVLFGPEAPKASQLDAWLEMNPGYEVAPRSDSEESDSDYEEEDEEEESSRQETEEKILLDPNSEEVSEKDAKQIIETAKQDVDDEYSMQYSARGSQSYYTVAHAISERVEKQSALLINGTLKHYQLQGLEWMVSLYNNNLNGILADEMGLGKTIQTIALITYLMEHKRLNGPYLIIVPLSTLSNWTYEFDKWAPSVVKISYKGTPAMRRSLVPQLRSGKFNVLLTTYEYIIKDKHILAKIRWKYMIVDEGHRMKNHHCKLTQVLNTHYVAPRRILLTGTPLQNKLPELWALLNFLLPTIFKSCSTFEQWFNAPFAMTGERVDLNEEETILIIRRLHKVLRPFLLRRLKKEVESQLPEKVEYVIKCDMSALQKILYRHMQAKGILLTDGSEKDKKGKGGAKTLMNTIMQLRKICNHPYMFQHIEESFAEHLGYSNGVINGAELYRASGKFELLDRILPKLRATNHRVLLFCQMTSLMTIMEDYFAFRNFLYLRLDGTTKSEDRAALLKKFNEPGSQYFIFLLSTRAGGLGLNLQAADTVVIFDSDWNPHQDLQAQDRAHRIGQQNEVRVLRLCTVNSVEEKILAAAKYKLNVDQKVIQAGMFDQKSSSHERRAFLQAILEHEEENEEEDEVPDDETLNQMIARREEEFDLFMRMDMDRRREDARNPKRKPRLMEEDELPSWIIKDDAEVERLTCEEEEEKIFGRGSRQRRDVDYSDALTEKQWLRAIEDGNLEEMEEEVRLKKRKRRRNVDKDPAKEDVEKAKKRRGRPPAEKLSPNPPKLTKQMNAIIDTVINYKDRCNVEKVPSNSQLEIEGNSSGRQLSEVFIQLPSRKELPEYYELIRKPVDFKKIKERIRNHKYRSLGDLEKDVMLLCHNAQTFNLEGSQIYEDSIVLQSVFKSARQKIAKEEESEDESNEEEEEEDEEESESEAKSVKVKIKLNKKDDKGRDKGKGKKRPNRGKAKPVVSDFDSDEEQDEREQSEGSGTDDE

[3] = tested on: several cancer cell lines; test: Inhibition of cell proliferation of several cancer cell lines; assay type: cell-based
[4] = tested on: uveal melanoma cell line MP41; test: Inhibition of cell proliferation of uveal melanoma cell line MP41; assay type: cell-based
[5] = tested on: uveal melanoma cell line 92-1; test: Inhibition of cell proliferation of uveal melanoma cell line 92-1; assay type: cell-based
[6] = tested on: uveal melanoma cell lines 92-1 or MP41; test: Growth inhibition of uveal melanoma cell lines, Compound A compared with clinical PKC and MEK inhibitors, 3 days, Cell-titer glo; assay type: cell-based; settings: vs LXS196 and Selumetinib
[7] = tested on: parental and PKC-inhibitor refractory uveal melanoma cell lines; test: Inhibition of cell proliferation of parental and PKC-inhibitor refractory uveal melanoma cell lines; assay type: cell-based
[8] = tested on: MP41 uveal melanoma cells, parental and PKCi-resistant; test: 7-day growth inhibition assay in parental and PKC inhibitor-resistant MP41 cells; assay type: cell-based; settings: 7-day assay
[9] = 92-1 or MP41, 3 days, 0 to 10 micromolar

| IC50 (BRG-1) [nM] | IC50 (BRM) [nM] | Structure (SMILES) | further results |
| --- | --- | --- | --- |
| – | – | CSCC[C@H](NC(=O)c1ccn(S(C)(=O)=O)c1)C(=O)Nc1nc(-c2cccc(-c3ccncc3)c2)cs1 [Compound 67, (S)-1-(methylsulfonyl)-N-(4-(methylthio)-1-oxo-1-((4-(3-(pyridin-4-yl)phenyl)thiazol-2-yl)amino)butan-2-yl)-1H-pyrrole-3-carboxamide] | growth inhibition of uveal melanoma cells compared with clinical PKC and MEK inhibitors (FIG. 6A, 6B) [1, 9]: more potent effects on growth inhibition; onset of growth inhibition compared with clinical PKC and MEK inhibitors ([1]; 92-1 or MP41): faster onset of growth inhibition; growth inhibition in uveal melanoma cell lines (FIG. 5) [2]: potent growth inhibition |
| – | – | CC(C)(C#N)n1cnc(C(=O)NCC(=O)Nc2nc(-c3cc(F)c4c(c3)OCC4)cs2)c1 [Compound 785] | IC50 (BRG-1; ATPase catalytic activity): > 10 nM; IC50 (BRM; ATPase catalytic activity): > 10 nM |
| > 10 | < 10 | C[C@@H]1CN(c2cccc(-c3csc(NC(=O)CNC(=O)c4ccn(C(C)(C)C#N)n4)n3)n2)C[C@H](C)O1 [Compound 786] | – |
| > 10 | > 10 | CN1CCOc2ccc(-c3csc(NC(=O)CNC(=O)c4ccn(C(C)(C)C#N)n4)n3)cc21 [Compound 787] | – |
| > 100 | > 100 | N#CC1(n2cnc(C(=O)NCC(=O)Nc3nc(-c4cc(F)c5c(c4)OCC5)cs3)c2)CC1 [Compound 788] | – |
| > 10 | > 10 | Cn1ccc(-c2cccc(-c3csc(NC(=O)CNC(=O)c4ccn(C(C)(C)C#N)n4)n3)c2)n1 [Compound 790] | – |
| > 10 | > 10 | CC(C)(C#N)n1ccc(C(=O)NCC(=O)Nc2nc(-c3cc(F)c4c(c3)OCC4)cs2)n1 [Compound 791] | – |
| > 100 | > 100 | C[C@H](NC(=O)c1ccn(C(C)(C)C)n1)C(=O)Nc1nc(-c2ccc3ccn(C)c(=O)c3c2)cs1 [Compound 792] | – |
| > 10 | > 10 | Cn1ccc2ccc(-c3csc(NC(=O)CNC(=O)c4ccn(C5(C#N)CC5)n4)n3)cc2c1=O [Compound 793] | – |
| > 100 | > 100 | N#CC1(n2ccc(C(=O)NCC(=O)Nc3nc(-c4cccc(OC(F)(F)F)c4)cs3)n2)CC1 [Compound 794] | – |
| > 100 | > 10 | C[C@@H]1CN(c2cccc(-c3csc(NC(=O)[C@H](C)NC(=O)c4ccn(C5(C#N)CC5)n4)n3)n2)C[C@H](C)O1 [Compound 795] | – |
| > 100 | > 100 | N#CC1(n2ccc(C(=O)NCC(=O)Nc3nc(-c4cc(F)cc(OC5CC5)c4)cs3)n2)CC1 [Compound 796] | – |
| > 100 | > 100 | C[C@@H]1CN(c2cccc(-c3csc(NC(=O)[C@H](C)NC(=O)c4cn(C5(C)COC5)cn4)n3)n2)C[C@H](C)O1 [Compound 797] | – |
| > 100 | > 100 | Cn1ccc(-c2cccc(-c3csc(NC(=O)CNC(=O)c4ccn(C5(C)COC5)n4)n3)c2)n1 [Compound 798] | – |
| > 100 | > 100 | C[C@H](NC(=O)c1cn(C2(C)COC2)cn1)C(=O)Nc1nc(-c2ccc3ccn(C)c(=O)c3c2)cs1 [Compound 801] | – |
| > 10 | > 10 | COC[C@H](NC(=O)c1cn(C(C)(C)C#N)cn1)C(=O)Nc1nc(-c2ccc3ccn(C)c(=O)c3c2)cs1 [Compound 802] | – |
| > 100 | > 10 | N#CC1(n2ccc(C(=O)NCC(=O)Nc3nc(-c4cc(F)c5c(c4)OCC5)cs3)n2)CC1 [Compound 803] | – |
| > 100 | > 100 | COC[C@H](NC(=O)c1cn(C2(C)COC2)cn1)C(=O)Nc1nc(-c2ccc3ccn(C)c(=O)c3c2)cs1 [Compound 804] | – |
| > 100 | > 100 | C[C@H](NC(=O)c1ccn(C2(C#N)CC2)n1)C(=O)Nc1nc(-c2ccc3ccn(C)c(=O)c3c2)cs1 [Compound 805] | – |
| > 10 | > 10 | C[C@@H]1CN(c2cccc(-c3csc(NC(=O)CNC(=O)c4ccn(C5(C#N)CC5)n4)n3)n2)C[C@H](C)O1 [Compound 806] | – |

| IC50 (BRG-1) [nM] | IC50 (BRM) [nM] | Structure (SMILES) | further results |
| --- | --- | --- | --- |
| > 100 | > 10 | CN1CCOc2ccc(-c3csc(NC(=O)CNC(=O)c4ccn(C5(C#N)CC5)n4)n3)cc21 [Compound 811] | – |
| > 100 | > 100 | COC[C@H](NC(=O)c1ccn(C2(C#N)CC2)n1)C(=O)Nc1nc(-c2ccc3ccn(C)c(=O)c3c2)cs1 [Compound 812] | – |
| > 100 | > 10 | Cn1ccc(-c2cccc(-c3csc(NC(=O)CNC(=O)c4ccn(C5(C#N)CC5)n4)n3)c2)n1 [Compound 813] | – |
| > 100 | > 10 | N#CC1(n2ccc(C(=O)NCC(=O)Nc3nc(-c4cccc(N5CCC5)c4)cs3)n2)CC1 [Compound 814] | – |
| > 100 | > 100 | COC[C@H](NC(=O)c1ccn(C2(C#N)CC2)n1)C(=O)Nc1nc(-c2cccc(-c3ccn(C)n3)c2)cs1 [Compound 815] | – |
| > 10 | > 10 | COC[C@H](NC(=O)c1ccn(C(C)(C)C#N)n1)C(=O)Nc1nc(-c2ccc3ccn(C)c(=O)c3c2)cs1 [Compound 816] | – |
| > 10 | > 10 | COC[C@H](NC(=O)c1ccn(C(C)(C)C#N)n1)C(=O)Nc1nc(-c2cc(C)cc(N3C[C@@H](C)O[C@@H](C)C3)n2)cs1 [Compound 817] | – |
| > 10 | > 10 | COC[C@H](NC(=O)c1cn(C(C)(C)C#N)cn1)C(=O)Nc1nc(-c2cc(C)cc(N3C[C@@H](C)O[C@@H](C)C3)n2)cs1 [Compound 818] | – |
| > 10 | > 10 | C[C@@H]1CN(c2cccc(-c3csc(NC(=O)CNC(=O)c4cn(C(C)(C)C#N)cn4)n3)n2)C[C@H](C)O1 [Compound 819] | – |
| > 100 | > 100 | CC(C)(C)c1cnc(C(=O)NCC(=O)Nc2nc(-c3cccc(N4CCC4)c3)cs2)s1 [Compound 820] | – |
| > 10 | > 10 | COC[C@H](NC(=O)c1ncc(C(C)(C)C)o1)C(=O)Nc1nc(-c2cccc(-c3cnn(C)n3)c2)cs1 [Compound 821] | – |
| > 100 | > 10 | C[C@@H]1CN(c2cccc(-c3csc(NC(=O)CNC(=O)c4ncc(C(C)(C)C)s4)n3)n2)C[C@H](C)O1 [Compound 822] | – |
| > 10 | < 10 | C[C@@H]1CN(c2cccc(-c3csc(NC(=O)CNC(=O)c4ncc(C(C)(C)C)o4)n3)c2)C[C@H](C)O1 [Compound 823] | – |
| > 100 | > 100 | COc1cnc(C(=O)NCC(=O)Nc2nc(-c3cccc(N4C[C@@H](C)O[C@@H](C)C4)n3)cs2)o1 [Compound 824] | – |
| > 10 | < 10 | COC[C@H](NC(=O)c1ncc(C(C)(C)C)o1)C(=O)Nc1nc(-c2cc(F)cc(-c3cnn(C)n3)c2)cs1 [Compound 825] | – |
| > 10 | > 10 | C[C@@H]1CN(c2cccc(-c3csc(NC(=O)CNC(=O)c4ncc(C5(C)COC5)o4)n3)n2)C[C@H](C)O1 [Compound 826] | – |
| > 10 | < 10 | C[C@@H]1CN(c2cccc(-c3csc(NC(=O)CNC(=O)c4ncc(C(C)(C)C)o4)n3)n2)C[C@H](C)O1 [Compound 827] | – |
| – | – | CSCC[C@H](NC(=O)c1ccc(N)cc1)C(=O)Nc1nc(-c2cccc(-c3ccncc3)c2)cs1 [Compound A] | inhibition of cell proliferation [3]: inhibition of cell proliferation; inhibition of cell proliferation [4]: inhibition of cell proliferation; inhibition of cell proliferation [5]: inhibition of cell proliferation; growth inhibition of uveal melanoma cells compared with clinical PKC and MEK inhibitors (FIG. 2A, 2B) [6, 9]: comparable growth inhibition; onset of inhibition compared with clinical PKC and MEK inhibitors ([6]; 92-1 or MP41): faster onset of inhibition |
| – | – | CC1(N)CCN(c2cccnc2NC(=O)c2nc(-c3ncccc3C(F)(F)F)cnc2N)CC1 [LXS196, reference compound] | inhibition of cell proliferation [7]: inhibition of cell proliferation; growth tolerance of PKCi-resistant cells relative to parental MP41 cell line (FIG. 7A) [8]: could tolerate growth at higher concentrations; inhibition of cell proliferation [4]: inhibition of cell proliferation; inhibition of cell proliferation [5]: inhibition of cell proliferation |
